# System: MCH receptors
# Assay: MCH receptor activity class (method not given)
# Settings: MCH receptor activity class 1-3 (percent of control at 10^-7 M or IC50)
row,SMILES,class
1,CC(C)c1cccc(C(C)C)c1NC(=O)NC[C@H]1CC[C@@H](Nc2nccc(N(C)C)n2)CC1 [compound 2442],1 (Class 1: The value of percent of control at 10^−7 M was less than 40% or the value of IC50 was less than 50 nM.)
2,Cc1ccc(NC(=O)NC[C@H]2CC[C@@H](Nc3cc(N(C)C)c4ccccc4n3)CC2)cc1 [compound 2395],3 (Class 3 The value of percent of control at 10^−7 M was more than 60% or the value of IC50 was more than 200 nM.)

# Same assay, conditions: MCH receptor; class by percent of control at 10^-7 M or IC50
row,SMILES,class
1,"Cc1ccc(C(=O)NC[C@H]2CC[C@@H](Nc3cc(N(C)C)c4ccccc4n3)CC2)cc1F [compound 201, N-[(cis-4-{[4-(dimethylamino)quinolin-2-yl]amino}cyclohexyl)methyl]-3-fluoro-4-methylbenzamide]",3 (Class 3 The value of percent of control at 10^−7 M was more than 60% or the value of IC50 was more than 200 nM.)
2,CN(C)c1cc(N[C@H]2CC[C@@H](NC(=O)c3ccc4c(c3)OCO4)CC2)nc2ccccc12 [compound 47],3 (Class 3 The value of percent of control at 10^−7 M was more than 60% or the value of IC50 was more than 200 nM.)
3,CN(C)c1nc(N[C@H]2CC[C@@H](NC(=S)NCc3ccc4c(c3)OCO4)CC2)nc2c1CCCC2 [compound 1946],3 (Class 3 The value of percent of control at 10^−7 M was more than 60% or the value of IC50 was more than 200 nM.)
4,CN(C)c1cc(N[C@H]2CC[C@@H](NC(=O)CCCOc3ccccc3)CC2)nc2ccccc12 [compound 120],3 (Class 3 The value of percent of control at 10^−7 M was more than 60% or the value of IC50 was more than 200 nM.)
5,CN(C)c1nc(N[C@H]2CC[C@@H](NC(=S)NCCN3CCCCC3)CC2)nc2c1CCCC2 [compound 2081],3 (Class 3 The value of percent of control at 10^−7 M was more than 60% or the value of IC50 was more than 200 nM.)
6,CN(C)c1cc(N[C@H]2CC[C@@H](NC(=O)c3cc(C(C)(C)C)nn3C)CC2)nc2ccccc12 [compound 86],3 (Class 3 The value of percent of control at 10^−7 M was more than 60% or the value of IC50 was more than 200 nM.)

# Same assay, conditions: activity class 1-3: percent of control at 10^-7 M or IC50
row,SMILES,class
1,COC(=O)N[C@H]1CC[C@@H](Nc2nccc(N(C)C)n2)CC1 [compound 1635],3 (Class 3 The value of percent of control at 10^−7 M was more than 60% or the value of IC50 was more than 200 nM.)
2,CN(C)c1cc(N[C@H]2CC[C@@H](CNC(=O)OCC3c4ccccc4-c4ccccc43)CC2)nc2ccccc12 [compound 1577],3 (Class 3 The value of percent of control at 10^−7 M was more than 60% or the value of IC50 was more than 200 nM.)
3,CN(C)c1ccnc(N[C@H]2CC[C@@H](NC(=O)OCc3ccccc3)CC2)n1 [compound 1631],3 (Class 3 The value of percent of control at 10^−7 M was more than 60% or the value of IC50 was more than 200 nM.)
4,CCc1ccccc1NC(=O)N[C@H]1CC[C@@H](Nc2nc3c(c(N(C)C)n2)CCCC3)CC1 [compound 1677],2 (Class 2: The value of percent of control at 10^−7 M was from 40% to 60% or the value of IC′50 was from 50 nM to 200 nM.)

# Same assay, conditions: activity class per percent of control at 10^-7 M or IC50
row,SMILES,class
1,CC(C(=O)N[C@H]1CC[C@@H](Nc2nc3c(c(N(C)C)n2)CCCC3)CC1)c1ccc(C(=O)c2cccs2)cc1 (relative stereo) [compound 1020],2 (Class 2: The value of percent of control at 10^−7 M was from 40% to 60% or the value of IC′50 was from 50 nM to 200 nM.)
2,Cc1ccc(C(=O)CC(SCc2ccc(Cl)cc2)C(=O)N[C@H]2CC[C@@H](Nc3nc4c(c(N(C)C)n3)CCCC4)CC2)cc1 (relative stereo) [compound 1018],2 (Class 2: The value of percent of control at 10^−7 M was from 40% to 60% or the value of IC′50 was from 50 nM to 200 nM.)

# Same assay, conditions: class 1-3 by percent of control at 10^-7 M or IC50
row,SMILES,class
1,Cc1cc(C(=O)N[C@H]2CC[C@@H](Nc3nc4c(c(N(C)C)n3)CCCC4)CC2)ccc1Br [compound 493],2 (Class 2: The value of percent of control at 10^−7 M was from 40% to 60% or the value of IC′50 was from 50 nM to 200 nM.)
2,CN(C)c1nc(N[C@H]2CC[C@@H](NC(=O)c3cccnc3Sc3ccccc3)CC2)nc2c1CCCC2 [compound 572],3 (Class 3 The value of percent of control at 10^−7 M was more than 60% or the value of IC50 was more than 200 nM.)
3,"Cc1cc(C)c(C(=O)NC[C@H]2CC[C@@H](Nc3nccc(N(C)C)n3)CC2)c(C)c1 [compound 449, N-[(cis-4-{[4-(dimethylamino)pyrimidin-2-yl]amino}cyclohexyl)methyl]-2,4,6-trimethylbenzamide]",2 (Class 2: The value of percent of control at 10^−7 M was from 40% to 60% or the value of IC′50 was from 50 nM to 200 nM.)
4,CCCN(CCC)S(=O)(=O)c1ccc(C(=O)N[C@H]2CC[C@@H](Nc3nc4c(c(N(C)C)n3)CCCC4)CC2)cc1 [compound 574],3 (Class 3 The value of percent of control at 10^−7 M was more than 60% or the value of IC50 was more than 200 nM.)

# Same assay, conditions: class by percent of control at 10^-7 M or IC50
row,SMILES,class
1,CN(C)c1ccnc(N[C@H]2CC[C@@H](NC(=O)c3cc(F)c(Cl)cc3Cl)CC2)n1 [compound 257],3 (Class 3 The value of percent of control at 10^−7 M was more than 60% or the value of IC50 was more than 200 nM.)
2,CN(C)c1nc(N[C@H]2CC[C@@H](NC(=O)c3ccc(Br)s3)CC2)nc2c1CCCC2 [compound 949],2 (Class 2: The value of percent of control at 10^−7 M was from 40% to 60% or the value of IC′50 was from 50 nM to 200 nM.)
3,CN(C)c1ccnc(N[C@H]2CC[C@@H](NC(=O)CC(c3ccccc3)c3ccccc3)CC2)n1 [compound 895],3 (Class 3 The value of percent of control at 10^−7 M was more than 60% or the value of IC50 was more than 200 nM.)
4,CCCCOc1ccc(NC(=O)N[C@H]2CC[C@@H](Nc3nc4c(c(N(C)C)n3)CCCC4)CC2)cc1 [compound 1896],3 (Class 3 The value of percent of control at 10^−7 M was more than 60% or the value of IC50 was more than 200 nM.)
5,CN(C)c1cc(N[C@H]2CC[C@@H](NC(=S)Nc3ccc(Br)cc3)CC2)nc2ccccc12 [compound 2167],3 (Class 3 The value of percent of control at 10^−7 M was more than 60% or the value of IC50 was more than 200 nM.)
6,Cc1ccnc(SCC(=O)N[C@H]2CC[C@@H](Nc3cc(N(C)C)c4ccccc4n3)CC2)n1 [compound 696],3 (Class 3 The value of percent of control at 10^−7 M was more than 60% or the value of IC50 was more than 200 nM.)
7,CN(C)c1ccnc(N[C@H]2CC[C@@H](NC(=O)c3ccc(F)cc3Cl)CC2)n1 [compound 279],3 (Class 3 The value of percent of control at 10^−7 M was more than 60% or the value of IC50 was more than 200 nM.)
8,CN(C)c1cc(N[C@H]2CC[C@@H](NCCN(CCC#N)c3ccccc3)CC2)nc2ccccc12 [compound 1455],2 (Class 2: The value of percent of control at 10^−7 M was from 40% to 60% or the value of IC′50 was from 50 nM to 200 nM.)
9,Cc1cccc(CNC[C@H]2CC[C@@H](Nc3nccc(N(C)C)n3)CC2)c1 [compound 1305],3 (Class 3 The value of percent of control at 10^−7 M was more than 60% or the value of IC50 was more than 200 nM.)
10,CN(C)c1cc(N[C@H]2CC[C@@H](CNC(=O)c3ccccc3Cc3ccccc3)CC2)nc2ccccc12 [compound 799],3 (Class 3 The value of percent of control at 10^−7 M was more than 60% or the value of IC50 was more than 200 nM.)
11,COc1cc(CN[C@H]2CC[C@@H](Nc3nc4c(c(N(C)C)n3)CCCC4)CC2)cc(I)c1O [compound 1343],2 (Class 2: The value of percent of control at 10^−7 M was from 40% to 60% or the value of IC′50 was from 50 nM to 200 nM.)
12,CN(C)c1nc(N[C@H]2CC[C@@H](NC(=O)Nc3c(Cl)cccc3Cl)CC2)nc2c1CCCC2 [compound 1800],3 (Class 3 The value of percent of control at 10^−7 M was more than 60% or the value of IC50 was more than 200 nM.)
13,CN(C)c1cc(N[C@H]2CC[C@@H](NC(=O)NCc3ccc(Cl)cc3Cl)CC2)nc2ccccc12 [compound 2140],3 (Class 3 The value of percent of control at 10^−7 M was more than 60% or the value of IC50 was more than 200 nM.)
14,COc1cc(CN[C@H]2CC[C@@H](Nc3nccc(N(C)C)n3)CC2)cc(OC)c1O [compound 1216],3 (Class 3 The value of percent of control at 10^−7 M was more than 60% or the value of IC50 was more than 200 nM.)
15,CC(C(=O)N[C@H]1CC[C@@H](Nc2nccc(N(C)C)n2)CC1)c1ccc(N2Cc3ccccc3C2=O)cc1 (relative stereo) [compound 849],3 (Class 3 The value of percent of control at 10^−7 M was more than 60% or the value of IC50 was more than 200 nM.)
16,CN(C)c1ccnc(N[C@H]2CC[C@@H](NC(=O)Nc3ccccc3C(F)(F)F)CC2)n1 [compound 2186],3 (Class 3 The value of percent of control at 10^−7 M was more than 60% or the value of IC50 was more than 200 nM.)

# Same assay, conditions: class by percent of control at 10^−7 M or IC50
row,SMILES,class
1,"Cc1cnc(N[C@H]2CC[C@@H](CNC(=O)c3cccc(OC(F)(F)F)c3)CC2)nc1N(C)C [compound 2699, N-[(cis-4-{[4-(dimethylamino)-5-methylpyrimidin-2-yl]amino}cyclohexyl)methyl]-3-(trifluoromethoxy)benzamide]",2 (Class 2: The value of percent of control at 10^−7 M was from 40% to 60% or the value of IC′50 was from 50 nM to 200 nM.)
2,"Cc1cc(N(C)C)nc(N[C@H]2CC[C@@H](NC(=O)c3cccc(OC(C)C)c3)CC2)n1 [compound 2977, N-(cis-4-{[4-(dimethylamino)-6-methylpyrimidin-2-yl]amino}cyclohexyl)-3-isopropoxybenzamide]",1 (Class 1: The value of percent of control at 10^−7 M was less than 40% or the value of IC50 was less than 50 nM.)
3,"Cc1nc(N[C@H]2CC[C@@H](NC(=O)c3ccc(OC(F)(F)F)cc3)CC2)nc(N(C)C)c1C [compound 2843, N-(cis-4-{[4-(dimethylamino)-5,6-dimethylpyrimidin-2-yl]amino}cyclohexyl)-4-(trifluoromethoxy)benzamide]",2 (Class 2: The value of percent of control at 10^−7 M was from 40% to 60% or the value of IC′50 was from 50 nM to 200 nM.)
4,Cc1nc(N[C@H]2CC[C@@H](NC(=O)c3ccc(O)nc3)CC2)nc(N(C)C)c1C [compound 2827],3 (Class 3 The value of percent of control at 10^−7 M was more than 60% or the value of IC50 was more than 200 nM.)

# — patent US20050197350A1, “Novel quinoline, tetrahydroquinazoline, and pyrimidine derivatives and methods of treatment related to the use thereof” (TAISHO PHARMACEUTICAL CO., LTD., priority 2003, published 2005)
